Patent US6429286B1, “Immunoregulatory molecules for costimulatory signal transduction” (priority 1997, dated 2002)
No end group written: not given here.

Assays:
[1] = tested on: anti-HBsAg antibody production; test: Anti-HBsAg antibody production in mice immunized with yHBsAg together with phages; format: in vivo, BALB/c mice; settings: i.p. yHBsAg 10 μg with phage, boost at 15 days, blood three weeks after immunization, FIG. 11
Protocol: BALB/c mice (four animals per group) were administered intraperitoneally with either 10 μg (100 μl/PBS) of recombinant HBsAg produced in yeast (yHBsAg; Juridical Foundation The Chemo-Sero-Therapeutic Research Institute) alone or in combination with phages expressing F2 or F6 (10: pg/100 μl). Fifteen days after primary immunization, th-e same samples were administered intraperitoneally., Three weeks after primary immunization, each mouse was bled. Serum was diluted with PBS-to 50-fold, 200-fold and 800-fold and then anti-HBsAg antibody titer was measured with Ausab EIA kit (Abbott Laboratories).
The antibody titer was measured using a positive control attached to the kit as a standard.

[2] = target: T1, mouse CD80-Ig (Mus musculus, UniProt Q00609); test: ELISA: binding of plate-coated phages to mouse CD80-Ig; settings: for binding to mouse CD80-Ig: ELISA, 200 to 1000 ng/35 μl mouse CD80-Ig, FIG. 5
T1 construct: Ig (immunoglobulin fusion partner); made in house; host or cells: COS7 cells (pCDM8 plasmid), purified on Protein A Sepharose
T1 sequence (Q00609 38-246 limits assumed): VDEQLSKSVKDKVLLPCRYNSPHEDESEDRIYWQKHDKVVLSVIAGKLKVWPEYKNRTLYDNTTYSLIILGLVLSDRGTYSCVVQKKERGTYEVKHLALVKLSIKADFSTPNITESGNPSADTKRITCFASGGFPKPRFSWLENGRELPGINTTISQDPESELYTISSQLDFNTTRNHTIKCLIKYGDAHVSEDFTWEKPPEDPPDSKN
Protocol: (§1) The binding activity was measured by ELISA. A 96-well ELISA plate (Sumitomo Bakelite, Tokyo) was coated with phages expressing F2 or F6 sequence (4×10^9 virions/well/40 pi) at 4° C. overnight and then blocked with 50 mM Tris-HCl, pH 7.5, 150 mM NaCl (TBS) supplemented with 1% BSA at room temperature for 2 hours. After washing the plate with TBST, the plate was added with 200 to 1000 ng/35 μl of mouse CD80-Ig diluted with PBS and reacted at room temperature for 1 hour. After washing with TBST, the plate was reacted with alkali phosphatase-labeled anti-human IgG antibody (Zymet, California) diluted with TBS by 100-fold at room temperature for 1 hour. After washing, to the plate was added the substrate sodium p-nitrophenylphosphate hexahydrate and absorbance at 405 nm was measured.

[3] = tested on: anti-mouse CTLA-4 monoclonal antibody; test: ELISA: reactivity of plate-coated phage clones with the anti-mouse CTLA-4 monoclonal antibody; format: binding, hamster; settings: phage 4x10^9 virions/well, antibody 200 ng/ml, FIG. 2 and 3
Protocol: The obtained 58 phage clones were subjected to primary screening with ELISA. A 96 well ELISA plate (Sumitomo Bakelite, Tokyo) was coated with each phage (4×10^9 virions/well/40 μl) purified as described by Smith et al. (G. P. Smith, Method in Enzymology, Vol. 217, p.228-257 (1993), Academic Press) at 4° C. overnight. The plate was washed with TBST and was blocked with 100 μl/well of 50 mM Tris-HCl, pH 7.5, 150 mM NaCl supplemented with 0.02% NaN3 and 1% BSA at room temperature for 2 hours. After washing with TBST, the plate was added with the anti-mouse CTLA-4 monoclonal antibody (200 ng/ml/well/100 μl) and reacted at room temperature for 1 hour. After washing with TBST; the plate was reacted with anti-hamster IgG antibody (Zymet, California) labeled with alkaline phosphatase diluted to 250-fold with TBS at room temperature for 1 hour. After washing, the plate was added with the substrate sodium p-nitrophenylphosphate hexahydrate (Wako Junyaku, Osaka) was added and absorbance at 405 nm was measured.
Whether each of the motifs as shown in Example 4 specifically binds to the anti-mouse CTLA-4 monoclonal antibody was investigated. A degree of specificity was determined by ELISA as described in Example 3. As a negative control, anti-mouse CD28 antibody (Phamingen, San Diego), having the same isotype with the anti-mouse CTLA-4 monoclonal antibody, and hamster IgG were used. Anti-hamster IgG antibody was used as a detection antibody. […] E. coli producing the phage expressing F2 sequence and the phage expressing F6 sequence have been deposited by the applicant in accordance with the Budapest Treaty as Escherichia coli F2 [FERM BP-6009] and as Escherichia coli F6 [FERM BP-60103], respectively, at National Institute of Bioscience and Human-Technology Agency of Industrial Science and Technology, 1-3, Higashi 1-chome, Tsukuba-shi, Ibaraki-ken, 305, Japan, on Apr. 14, 1997 (original deposition date: transferred from FERM P-16192 and FERM P-16193, respectively, to the deposition under the Budapest Treaty on Jul. 4, 1997).

[4] = tested on: T cells (spleen cells); test: Effect of CD80-Ig or CD86-Ig on the T cell growth stimulating activity of the phages; format: cell-based, BALB/c mice; settings: phage 1 μg/ml, egg lysozyme 3 μg/ml; for effect of CD80-Ig on T cell growth stimulating activity: CD80-Ig 0-1 μg/ml, FIG. 9 and 10
Protocol: Each phage expressing F2 or F6 sequence reacted with anti-mouse CTLA-4 monoclonal antibody as shown in Example 5. Phage expressing F2 specifically bound to mouse CD80-Ig as shown in Example 7.
Egg lysozyme 50 μg (100 μl/PBS) was intraperitoneally administered to BALB/c mice. Four weeks after administration, spleen cells were removed from each mouse in a usual manner. In this Example, to each well of a 96-well culture plate were added the spleen cells at 1.5×10^5 cells/well and egg lysozyme at 3 μg/ml together with phage expressing F2 or F6 (1 μg/ml) and CD80-Ig or CD86-Ig or human Ig as a negative control at 0-1 μg/ml. The T cell growth stimulating activity was determined as described in Example 6.

[5] = tested on: T cells (spleen cells); test: T cell growth stimulating activity in spleen cells of mice immunized with egg lysozyme; format: cell-based, BALB/c mice; settings: egg lysozyme 3 μg/ml plus phage 1 μg/ml added separately, W. T. phage as negative control, FIG. 8
Description: In Example 6, there were used a phage protein as a primary antigen stimulation and the phage protein with expressed F2 or F6 sequence as a secondary stimulation in vitro. That is, in Example 6, a phage protein was used as an antigen and a secondary stimulation was made in a condition where both said antigen and F2 or F6 sequence are on the same particle. In this Example, however, the activity to stimulate the growth of T cells of phages expressing F2 or F6 as described in Example 6 was investigated wherein an antigen irrelevant to the phage (egg lysozyme) was used as a primary antigen stimulation and the egg lysozyme plus the phage particles expressing F2 or F6 sequence were separately added as a secondary stimulation.
Egg lysozyme 10 μg (100 μl/Freund's incomplete adjuvant (FIA)) was subcutaneously injected to BALB/c mice. Four weeks after administration, spleen cells and the relevant lymph nodes were removed from each mouse in a usual manner. Each well of 96-well culture plate was added with the spleen cells at 1.5×10^5 cells/well and with egg lysozyme at 3 μg/ml. Phages expressing F2 or F6 sequence were added at 1 μg/ml either at the same time, 1 day after, or 2 days after, the addition of egg lysozyme. As a negative control, W. T. phage was added. Measurement after culture was as described in Example 6.

[6] = target: T2, human CD80-Ig (Homo sapiens, UniProt P33681); test: ELISA: binding of phage expressing F2 sequence to human CD80-Ig; settings: mouse CTLA-4-Ig and human IgG as negative control, FIG. 7
T2 construct: a fused gene of human CD80 extracellular domain and human Ig Cγl domain; made in house; host or cells: COS7 cells (pCDM8 plasmid, DEAE-dextran), purified on Protein A Sepharose
T2 sequence (P33681 35-242 limits assumed): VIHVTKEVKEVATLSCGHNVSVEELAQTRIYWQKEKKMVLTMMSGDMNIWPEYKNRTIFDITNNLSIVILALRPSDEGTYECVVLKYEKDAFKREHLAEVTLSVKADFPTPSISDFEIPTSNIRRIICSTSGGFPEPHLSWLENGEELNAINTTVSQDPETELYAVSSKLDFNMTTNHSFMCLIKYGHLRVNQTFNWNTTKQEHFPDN
Protocol: as §1
Then, whether phage expressing F2 sequence specifically binds to human CD80-Ig was investigated in this Example as described in Example 7, FIG. 5.
Human CD80-Ig was prepared by constructing a fused gene of human CD80 extracellular domain and human Ig Cγl domain as described by Linsley et al. (J. Exp. Med. Vol. 173, p.721-730 (1991)). An expression plasmid pCDM8 incorporating the fused gene fragment was introduced into COS7 cells by DEAE-dextran method. After culturing for 72 hours, human CD80-Ig was purified from culture supernatant with Protein A Sepharose (Pharmacia). […]

[7] = tested on: T cells (spleen cells); test: T cell growth, [3H]-thymidine take-up by spleen cells of mice primed with W. T. phage; format: cell-based, BALB/c mice; settings: phage 0.015 to 5 μg/ml, three days culture, FIG. 4
Protocol: BALB/c mice (6 weeks old; four animals per group) were used in an experiment and the phages were purified as described by Smith et al. (G. P. Smith, Method in Enzymology, Vol. 217, p.228-257 (1993), Academic Press). An amount of the phages was measured using protein assay kit (BioRad) with bovine serum albumin as a standard and expressed as a protein concentration.
First, for antigen, stimulation, BALB/c mice were administered intraperitoneally with 10 μg (200 μl/PBS) of phage (W. T.) not expressing pIII protein. Four weeks after the administration, spleen cells were removed from each mouse in the usual manner. The spleen cells were added to each well of 96-well culture plate at 1.5×10^5 cells/well. To each well was added purified W. T. or phages expressing any of F1 to F6 sequence at a final concentration of 0.015 to 5 μg/ml to make a total volume of 200 μl (RPMS 1640 medium containing 10% FCS) Triplicates were used for each sample. After incubating these samples on ice for 30 minutes, the cells were cultured under condition of 5% CO2 at 37° C. for three days. Eighteen hours before completion of culture, the cells were pulse-labeled with [^3H]-thymidine (0.5 μCi/well). The cells were harvested with a cell harvester and a take-up of [^3H]-thymidine was measured with a liquid scintillation counter.

[8] = target: T3, mouse CTLA-4-Ig (mouse, UniProt P09793 36-161); test: ELISA, F2 phage coated, reacted with mouse CD80-Ig, mouse CTLA-4-Ig and human IgG
T3 construct: also called CTLA-4-Ig chimeric molecule; not shown: Ig part of the chimera; not described for this construct

Molecule | anti-HBsAg antibody titer relative to group immunized with HBsAg alone (= 1) [1] | binding to mouse CD80-Ig [2] | reactivity with anti-mouse CTLA-4 monoclonal antibody [3] | effect of CD80-Ig on T cell growth stimulating activity [4] | T cell growth stimulating activity, egg lysozyme as antigen [5] | growth of T cells as compared to W. T. phage [7] | further results
APGVRLGCAVLGRYC (cysteine pairing not given here) [F6] | 11.9 | do not bind to CD80/CD86 molecules | reacted most strongly | did not inhibit | exhibited the antigen-specific activity to stimulate the growth of T cells | – | effect of CD86-Ig on T cell growth stimulating activity ([4]; CD86-Ig 0-1 μg/ml, FIG. 10): did not inhibit
GFVCSGIFAVGVGRC (cysteine pairing not given here) [F2] | 17.9 | bound to mouse CD80-Ig in a concentration-dependent manner | reacted most strongly | greatly inhibited | exhibited the antigen-specific activity to stimulate the growth of T cells | – | binding specificity to mouse CD80-Ig ([2]; ELISA against mouse CD80-Ig, mouse CTLA-4-Ig and human IgG, FIG. 6): specifically reacted with mouse CD80-Ig; binding to human CD80-Ig [6]: specifically bound to human CD80-Ig
SCVFHHSGRYWGRCV (cysteine pairing not given here) [F3] | – | – | reacted more weakly | – | – | approximately equivalent to that with W. T. phage | –
HYGDCRYDLGSCRGA (cysteine pairing not given here) [F4] | – | – | reacted weakly | – | – | approximately equivalent to that with W. T. phage | –
GLHSRCHIGRDCSSA (cysteine pairing not given here) [F1] | – | – | reacted weakly | – | – | approximately equivalent to that with W. T. phage | –
phage expressing F2 sequence (also called F2 phage) ADGAGFVCSGIFAVGVGRCGAAGAETVESCLAKPHTENSFTNVWKDDKTLDRYANYEGCLWNATGVVVCTGDETQCYGTWVPIGLAIPENEGGGSEGGGSEGGGSEGGGTKPPEYGDTPIPGYTYINPLDGTYPPGTEQNPANPNPSLEESQPLNTFMFQNNRFRNRQGALTVYTGTVTQGTDPVKTYYQYTPVSSKAMYDAYWNGKFRDCAFHSGFNEDPFVCEYQGQSSDLPQPPVNAGGGSGGGSGGGSEGGGSEGGGSEGGGSEGGGSGGGSGSGDFDYEKMANANKGAMTENADENALQSDAKGKLDSVATDYGAAIDGFIGDVSGLANGNGATGDFAGSNSQMAQVGDGDNSPLMNNFRQYLPSLPQSVECRPYVFGAGKPYEFSIDCDKINLFRGVFAFLLYVATFMYVFSTFANILRNKES | – | – | – | – | – | – | binding result [8]: no binding
